This note sets out measurements from ChEMBL document CHEMBL5696441 (Nat Chem Biol, 2011).

For experiment [1], the target named is Ephrin type-A receptor 2 (Homo sapiens) (UniProt P29317). In words: Inhibition of EPHA2 (unknown origin) assessed as remaining activity at 1 uM by Kinome scan method relative to control.
Experiment [2] concerns the target Rhodopsin kinase GRK1 (Homo sapiens) (UniProt Q15835). In words: Inhibition of GRK1 (unknown origin) assessed as remaining activity at 1 uM by Kinome scan method relative to control.
Experiment [3] concerns the target Cyclin-dependent kinase 18 (Homo sapiens) (UniProt Q07002). Kind of experiment: Inhibition of PCTK3 (unknown origin) assessed as remaining activity at 1 uM by Kinome scan method relative to control.
Experiment [4] has as its target T1, Serine/threonine-protein kinase DCLK2 (Homo sapiens) (UniProt Q8N568).
T1 sequence (whole entry): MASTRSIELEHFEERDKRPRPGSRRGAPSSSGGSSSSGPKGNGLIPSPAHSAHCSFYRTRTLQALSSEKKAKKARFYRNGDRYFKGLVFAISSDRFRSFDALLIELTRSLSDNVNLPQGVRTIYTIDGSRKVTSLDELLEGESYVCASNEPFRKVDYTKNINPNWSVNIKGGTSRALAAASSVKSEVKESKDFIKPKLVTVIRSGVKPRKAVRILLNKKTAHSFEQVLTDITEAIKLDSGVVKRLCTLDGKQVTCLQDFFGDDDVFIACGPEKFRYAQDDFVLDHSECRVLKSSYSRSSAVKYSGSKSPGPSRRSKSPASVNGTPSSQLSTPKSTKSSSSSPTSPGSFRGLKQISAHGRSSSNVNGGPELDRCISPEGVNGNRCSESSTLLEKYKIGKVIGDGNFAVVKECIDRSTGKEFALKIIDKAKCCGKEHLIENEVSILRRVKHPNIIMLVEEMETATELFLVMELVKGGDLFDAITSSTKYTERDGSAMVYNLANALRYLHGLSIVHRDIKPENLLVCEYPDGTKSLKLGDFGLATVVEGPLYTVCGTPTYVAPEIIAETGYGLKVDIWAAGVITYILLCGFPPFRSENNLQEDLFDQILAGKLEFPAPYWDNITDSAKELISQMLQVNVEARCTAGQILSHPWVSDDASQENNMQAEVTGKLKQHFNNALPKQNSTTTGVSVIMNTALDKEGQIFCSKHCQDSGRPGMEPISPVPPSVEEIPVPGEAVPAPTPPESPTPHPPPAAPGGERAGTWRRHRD
In words: Inhibition of DCAMKL2 (unknown origin) assessed as remaining activity at 1 uM by Kinome scan method relative to control.

The target in experiment [5] is Cyclin-dependent kinase 9 (Homo sapiens) (UniProt P50750). Kind of experiment: Inhibition of CDK9 (unknown origin) assessed as remaining activity at 1 uM by Kinome scan method relative to control.
In experiment [6] the target is T2, Inhibitor of nuclear factor kappa-B kinase subunit alpha (Homo sapiens) (UniProt O15111).
T2 sequence (whole entry): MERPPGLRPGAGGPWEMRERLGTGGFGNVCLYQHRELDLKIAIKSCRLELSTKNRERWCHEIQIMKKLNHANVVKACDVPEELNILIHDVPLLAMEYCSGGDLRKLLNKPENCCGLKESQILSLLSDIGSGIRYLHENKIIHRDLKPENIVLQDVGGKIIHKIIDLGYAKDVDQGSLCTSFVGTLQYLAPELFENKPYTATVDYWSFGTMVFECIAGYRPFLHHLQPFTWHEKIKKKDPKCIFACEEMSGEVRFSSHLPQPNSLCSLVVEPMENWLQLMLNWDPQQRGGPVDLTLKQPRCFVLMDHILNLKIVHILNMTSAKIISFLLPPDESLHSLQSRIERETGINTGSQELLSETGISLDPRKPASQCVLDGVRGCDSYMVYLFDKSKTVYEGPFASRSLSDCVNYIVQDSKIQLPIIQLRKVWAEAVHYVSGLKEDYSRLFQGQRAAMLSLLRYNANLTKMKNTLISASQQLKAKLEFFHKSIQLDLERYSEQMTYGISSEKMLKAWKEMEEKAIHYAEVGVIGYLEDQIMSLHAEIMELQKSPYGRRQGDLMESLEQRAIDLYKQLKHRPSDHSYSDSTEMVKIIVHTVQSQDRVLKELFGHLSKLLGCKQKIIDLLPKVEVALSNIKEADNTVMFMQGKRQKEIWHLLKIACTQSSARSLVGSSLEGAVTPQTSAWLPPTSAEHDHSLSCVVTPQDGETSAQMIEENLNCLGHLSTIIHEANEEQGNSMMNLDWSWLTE
In words: Inhibition of IKK-alpha (unknown origin) assessed as remaining activity at 1 uM by Kinome scan method relative to control.

Experiment [7] concerns the target Serine/threonine-protein kinase N2 (Homo sapiens) (UniProt Q16513). Kind of experiment: Inhibition of PKN2 (unknown origin) assessed as remaining activity at 1 uM by Kinome scan method relative to control.
The target in experiment [8] is Cyclin-dependent kinase 16 (Homo sapiens) (UniProt Q00536). Kind of experiment: Inhibition of PCTK1 (unknown origin) assessed as remaining activity at 1 uM by Kinome scan method relative to control.
Chain of Cyclin-dependent kinase 16 (Homo sapiens) (Q00536 whole entry): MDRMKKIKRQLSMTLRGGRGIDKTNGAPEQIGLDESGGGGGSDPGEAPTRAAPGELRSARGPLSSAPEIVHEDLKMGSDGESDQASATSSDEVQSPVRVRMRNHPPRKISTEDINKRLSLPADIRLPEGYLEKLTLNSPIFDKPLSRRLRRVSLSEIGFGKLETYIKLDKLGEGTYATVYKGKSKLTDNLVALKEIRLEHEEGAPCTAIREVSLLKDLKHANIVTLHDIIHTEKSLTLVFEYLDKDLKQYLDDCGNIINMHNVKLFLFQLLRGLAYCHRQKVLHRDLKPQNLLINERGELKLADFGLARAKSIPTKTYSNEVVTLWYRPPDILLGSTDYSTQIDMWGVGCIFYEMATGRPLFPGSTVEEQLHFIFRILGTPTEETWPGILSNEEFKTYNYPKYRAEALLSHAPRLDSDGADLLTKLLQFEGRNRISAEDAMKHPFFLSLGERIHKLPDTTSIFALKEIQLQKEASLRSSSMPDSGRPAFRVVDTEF
Experiment [9] addresses Tyrosine-protein kinase Blk (Homo sapiens) (UniProt P51451). Kind of experiment: Inhibition of BLK (unknown origin) assessed as remaining activity at 1 uM by Kinome scan method relative to control.
In experiment [10] the target is Protein kinase C eta type (Homo sapiens) (UniProt P24723). In words: Inhibition of PRKCH (unknown origin) assessed as remaining activity at 1 uM by Kinome scan method relative to control.
The target of experiment [11] is Serine/threonine-protein kinase/endoribonuclease IRE1 (Homo sapiens) (UniProt O75460). In words: Inhibition of ERN1 (unknown origin) assessed as remaining activity at 1 uM by Kinome scan method relative to control.
Chain of Serine/threonine-protein kinase/endoribonuclease IRE1 (Homo sapiens) (O75460 19-977 limits assumed): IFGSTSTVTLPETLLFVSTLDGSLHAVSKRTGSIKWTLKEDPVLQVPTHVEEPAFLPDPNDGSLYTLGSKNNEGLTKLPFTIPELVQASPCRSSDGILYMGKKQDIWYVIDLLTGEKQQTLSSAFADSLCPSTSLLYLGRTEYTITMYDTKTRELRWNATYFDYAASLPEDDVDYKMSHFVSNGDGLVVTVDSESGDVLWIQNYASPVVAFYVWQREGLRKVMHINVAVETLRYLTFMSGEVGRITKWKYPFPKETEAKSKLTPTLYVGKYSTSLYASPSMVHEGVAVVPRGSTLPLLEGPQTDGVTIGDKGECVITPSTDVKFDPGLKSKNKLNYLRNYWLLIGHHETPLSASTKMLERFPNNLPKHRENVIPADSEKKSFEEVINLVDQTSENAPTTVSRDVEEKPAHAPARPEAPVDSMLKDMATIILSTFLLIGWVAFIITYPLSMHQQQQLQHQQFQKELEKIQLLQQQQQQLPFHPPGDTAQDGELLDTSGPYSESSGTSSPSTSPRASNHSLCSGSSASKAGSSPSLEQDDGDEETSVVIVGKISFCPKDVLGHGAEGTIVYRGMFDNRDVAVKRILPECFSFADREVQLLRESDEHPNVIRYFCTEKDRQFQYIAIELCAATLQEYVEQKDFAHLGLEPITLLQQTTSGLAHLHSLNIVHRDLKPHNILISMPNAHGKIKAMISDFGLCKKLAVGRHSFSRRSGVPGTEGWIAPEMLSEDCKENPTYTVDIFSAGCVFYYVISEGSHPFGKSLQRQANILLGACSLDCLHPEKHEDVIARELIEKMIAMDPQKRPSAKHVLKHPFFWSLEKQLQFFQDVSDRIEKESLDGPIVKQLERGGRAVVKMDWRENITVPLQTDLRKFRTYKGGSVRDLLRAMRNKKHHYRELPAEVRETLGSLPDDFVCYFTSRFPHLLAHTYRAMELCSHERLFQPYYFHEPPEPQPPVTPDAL
The target of experiment [12] is T3, Serine/threonine-protein kinase Chk1 (Homo sapiens) (UniProt O14757).
T3 sequence (whole entry): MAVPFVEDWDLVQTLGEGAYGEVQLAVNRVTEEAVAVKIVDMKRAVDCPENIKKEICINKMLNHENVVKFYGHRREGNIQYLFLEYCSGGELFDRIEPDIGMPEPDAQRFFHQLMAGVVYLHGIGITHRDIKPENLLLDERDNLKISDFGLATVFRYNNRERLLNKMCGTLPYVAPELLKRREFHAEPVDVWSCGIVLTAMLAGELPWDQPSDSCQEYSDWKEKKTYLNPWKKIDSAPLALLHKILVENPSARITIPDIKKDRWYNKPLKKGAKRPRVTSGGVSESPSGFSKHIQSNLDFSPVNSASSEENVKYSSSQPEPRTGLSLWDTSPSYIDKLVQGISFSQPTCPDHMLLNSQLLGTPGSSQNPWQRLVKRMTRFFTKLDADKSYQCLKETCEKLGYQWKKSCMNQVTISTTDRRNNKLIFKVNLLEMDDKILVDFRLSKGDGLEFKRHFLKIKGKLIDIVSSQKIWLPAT
In words: Inhibition of CHEK1 (unknown origin) assessed as remaining activity at 1 uM by Kinome scan method relative to control.

Experiment [13] addresses NT-3 growth factor receptor (Homo sapiens) (UniProt Q16288). In words: Inhibition of TRKC (unknown origin) assessed as remaining activity at 1 uM by Kinome scan method relative to control.

Chain of Rhodopsin kinase GRK1 (Homo sapiens) (Q15835 whole entry): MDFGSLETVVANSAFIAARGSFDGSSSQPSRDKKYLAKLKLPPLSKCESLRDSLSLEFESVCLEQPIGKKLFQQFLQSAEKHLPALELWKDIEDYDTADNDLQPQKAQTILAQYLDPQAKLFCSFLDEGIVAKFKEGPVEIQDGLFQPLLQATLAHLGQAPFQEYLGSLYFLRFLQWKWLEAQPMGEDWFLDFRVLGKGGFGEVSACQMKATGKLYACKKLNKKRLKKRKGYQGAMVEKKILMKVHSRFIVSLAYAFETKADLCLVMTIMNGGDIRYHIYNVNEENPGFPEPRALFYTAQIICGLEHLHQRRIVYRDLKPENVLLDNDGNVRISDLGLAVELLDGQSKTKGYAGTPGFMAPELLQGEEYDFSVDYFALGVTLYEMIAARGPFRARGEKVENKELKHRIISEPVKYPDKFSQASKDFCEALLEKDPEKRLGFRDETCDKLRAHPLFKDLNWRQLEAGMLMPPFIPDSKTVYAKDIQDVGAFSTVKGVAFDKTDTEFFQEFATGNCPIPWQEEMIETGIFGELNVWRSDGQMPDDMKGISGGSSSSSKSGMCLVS
Chain of Cyclin-dependent kinase 18 (Homo sapiens) (Q07002 whole entry): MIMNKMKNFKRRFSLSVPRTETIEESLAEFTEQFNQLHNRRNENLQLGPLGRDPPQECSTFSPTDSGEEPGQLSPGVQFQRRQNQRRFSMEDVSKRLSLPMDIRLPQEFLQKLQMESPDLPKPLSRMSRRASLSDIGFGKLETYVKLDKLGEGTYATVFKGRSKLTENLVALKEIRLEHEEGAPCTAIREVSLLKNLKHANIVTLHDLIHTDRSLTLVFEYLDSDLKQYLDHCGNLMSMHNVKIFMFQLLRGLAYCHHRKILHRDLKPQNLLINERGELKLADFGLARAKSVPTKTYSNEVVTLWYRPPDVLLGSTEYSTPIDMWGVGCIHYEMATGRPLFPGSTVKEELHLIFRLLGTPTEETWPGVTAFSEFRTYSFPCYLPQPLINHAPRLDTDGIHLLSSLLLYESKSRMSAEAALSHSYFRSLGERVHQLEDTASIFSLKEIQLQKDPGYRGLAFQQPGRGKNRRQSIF
Chain of Ephrin type-A receptor 2 (Homo sapiens) (P29317 whole entry): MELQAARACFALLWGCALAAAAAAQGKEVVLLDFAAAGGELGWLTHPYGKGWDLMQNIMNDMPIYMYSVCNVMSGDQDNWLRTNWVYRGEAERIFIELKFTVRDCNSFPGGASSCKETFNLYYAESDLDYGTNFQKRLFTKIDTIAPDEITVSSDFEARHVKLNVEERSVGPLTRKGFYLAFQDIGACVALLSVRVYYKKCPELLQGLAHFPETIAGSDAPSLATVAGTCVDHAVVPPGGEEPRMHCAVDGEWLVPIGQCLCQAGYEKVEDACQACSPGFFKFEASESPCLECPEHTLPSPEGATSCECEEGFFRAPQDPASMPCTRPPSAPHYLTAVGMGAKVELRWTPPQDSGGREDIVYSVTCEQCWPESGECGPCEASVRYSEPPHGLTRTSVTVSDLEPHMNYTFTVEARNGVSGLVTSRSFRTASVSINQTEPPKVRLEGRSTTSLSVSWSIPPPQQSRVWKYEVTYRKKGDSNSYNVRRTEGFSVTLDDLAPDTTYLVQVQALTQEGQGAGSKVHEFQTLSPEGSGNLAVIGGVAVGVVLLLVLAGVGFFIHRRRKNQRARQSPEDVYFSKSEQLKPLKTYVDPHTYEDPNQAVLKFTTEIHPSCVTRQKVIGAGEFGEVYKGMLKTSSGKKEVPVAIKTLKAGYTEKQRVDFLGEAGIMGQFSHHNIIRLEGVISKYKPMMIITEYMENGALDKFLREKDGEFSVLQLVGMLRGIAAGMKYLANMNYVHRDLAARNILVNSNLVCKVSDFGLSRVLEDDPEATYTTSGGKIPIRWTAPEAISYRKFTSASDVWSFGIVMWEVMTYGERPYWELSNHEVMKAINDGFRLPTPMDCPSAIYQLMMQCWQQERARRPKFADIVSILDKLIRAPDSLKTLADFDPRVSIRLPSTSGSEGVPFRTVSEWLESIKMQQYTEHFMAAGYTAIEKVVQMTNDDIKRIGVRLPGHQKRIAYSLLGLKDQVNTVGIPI
Chain of Serine/threonine-protein kinase N2 (Homo sapiens) (Q16513 whole entry, looked up): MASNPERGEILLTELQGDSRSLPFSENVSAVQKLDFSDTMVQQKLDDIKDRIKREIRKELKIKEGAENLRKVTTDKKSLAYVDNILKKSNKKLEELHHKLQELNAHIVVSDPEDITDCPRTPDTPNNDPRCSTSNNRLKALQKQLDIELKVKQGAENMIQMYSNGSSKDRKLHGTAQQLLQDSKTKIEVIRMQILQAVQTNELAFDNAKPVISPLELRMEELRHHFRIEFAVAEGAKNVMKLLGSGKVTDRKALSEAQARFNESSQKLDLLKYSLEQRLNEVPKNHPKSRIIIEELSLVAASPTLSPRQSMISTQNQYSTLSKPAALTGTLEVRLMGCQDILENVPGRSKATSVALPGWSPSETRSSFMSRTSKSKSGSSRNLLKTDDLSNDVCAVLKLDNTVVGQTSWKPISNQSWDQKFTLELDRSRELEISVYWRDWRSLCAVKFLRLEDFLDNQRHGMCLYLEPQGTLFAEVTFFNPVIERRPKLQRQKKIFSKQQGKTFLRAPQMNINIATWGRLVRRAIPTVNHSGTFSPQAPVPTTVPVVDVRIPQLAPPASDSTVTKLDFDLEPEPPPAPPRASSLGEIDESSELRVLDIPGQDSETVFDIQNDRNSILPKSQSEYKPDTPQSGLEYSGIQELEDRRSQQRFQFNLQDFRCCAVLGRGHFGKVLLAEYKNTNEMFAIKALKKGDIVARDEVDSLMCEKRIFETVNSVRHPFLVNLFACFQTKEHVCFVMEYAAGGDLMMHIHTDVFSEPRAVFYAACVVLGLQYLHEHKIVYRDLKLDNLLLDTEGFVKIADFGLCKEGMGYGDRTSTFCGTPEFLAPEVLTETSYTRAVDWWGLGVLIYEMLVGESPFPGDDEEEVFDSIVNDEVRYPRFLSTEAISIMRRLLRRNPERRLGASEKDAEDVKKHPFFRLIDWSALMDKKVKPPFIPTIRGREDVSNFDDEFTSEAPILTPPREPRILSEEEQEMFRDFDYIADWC
Chain of Tyrosine-protein kinase Blk (Homo sapiens) (P51451 2-505 limits assumed): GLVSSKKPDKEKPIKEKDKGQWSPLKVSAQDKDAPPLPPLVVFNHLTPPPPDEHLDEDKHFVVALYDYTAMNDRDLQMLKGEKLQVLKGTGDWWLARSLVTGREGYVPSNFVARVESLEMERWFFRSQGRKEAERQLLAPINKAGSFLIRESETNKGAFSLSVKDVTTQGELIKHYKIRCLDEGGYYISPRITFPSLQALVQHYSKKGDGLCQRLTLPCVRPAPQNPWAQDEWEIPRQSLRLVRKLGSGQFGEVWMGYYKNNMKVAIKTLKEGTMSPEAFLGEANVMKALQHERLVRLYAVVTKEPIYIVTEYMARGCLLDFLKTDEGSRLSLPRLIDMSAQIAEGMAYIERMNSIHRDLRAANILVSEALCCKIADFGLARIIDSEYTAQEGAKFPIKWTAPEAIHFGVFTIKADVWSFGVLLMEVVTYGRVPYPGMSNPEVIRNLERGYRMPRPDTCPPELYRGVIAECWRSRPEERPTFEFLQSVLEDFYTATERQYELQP

With `Nc1ccccc1Nc1ccc2c(c1)CCc1ccccc1C2=O`, the Activity came out at 93% in experiment [1]; 84% in experiment [2]; 94% in experiment [3]; 98% in experiment [4]; 93% in experiment [5]; 98% in experiment [6]. Moreover, the Activity in experiment [7] was determined as 89%; in experiment [8] it was 98%; in experiment [9], 66%; in experiment [10] it was 90%; in experiment [11] it was 98%; in experiment [12] it was 86%. In addition, the Activity in experiment [13] is 86%.

Consider `O=C1c2ccc(Nc3ccc(F)cc3F)cc2CCc2ccc(OC[C@H](O)CO)cc21` [Skepinone-L], for which the Activity in experiment [1] was 92%; in [2], 76%; in [3], 78%; in experiment [4], 88%; in experiment [5] it was 100%; in experiment [6], 100%. Besides, the Activity turned out to be 84% in experiment [7]; 85% in experiment [8]; 97% in [9]; 90% in [10]; 100% in experiment [11]; 94% in experiment [12]. In addition, in experiment [13], the Activity came out at 100%.
